# Literature values as cited in patent US4146622A, “Aziridinyl quinone anti-transplanted tumor agents” (priority 1977, dated 1979).
# “Also recorded” adds a separate entry of the source.
# Test system: lymphoid leukemia L1210
# Conditions: L1210 system, prior/literature; cited from earlier work
row,Structure (SMILES),"antitumor activity, prior testing"
1,"O=C1C(Cl)=C(N2CC2)C(=O)C(Cl)=C1N1CC1 [Compound 4, 2,5-dichloro-3,6-diaziridinyl-1,4-benzoquinone]",inactive
2,"COC1=C(Br)C(=O)C(OC)=C(Br)C1=O [Compound 14, 2,5-dibromo-3,6-dimethoxy-1,4-benzoquinone]",inactive
3,NC1=C(Cl)C(=O)C(N)=C(Cl)C1=O [Compound 19],inactive
4,"CC(=O)NC1=C(Cl)C(=O)C(NC(C)=O)=C(Cl)C1=O [Compound 20, 2,5-dichloro-3,5-acetylamino-1,4-benzoquinone]",inactive
5,CC(=O)NC1=C(N2CC2)C(=O)C(NC(C)=O)=C(N2CC2)C1=O [Compound 27],active; also recorded: intraperitoneal (IP) leukemia L1210 activity
6,COC1=C(N2CC2)C(=O)C(OC)=C(N2CC2)C1=O [Compound 28],intraperitoneal (IP) leukemia L1210 activity
